Read-outs that look alike come from different tables or passages of the source.
What was measured:
[1] = target: T1, CYP1A2 (Homo sapiens, UniProt P05177); experiment: Inhibitory effect on human liver microsome CYP450 enzyme; format: in vitro ADME; details: human liver microsomes, substrate Phenacetin
T1 construct: 0.05 mg/mL liver microsomes (BioIVT, IHG) phosphate buffer solution; tissue BioIVT IHG; host or cells: human liver microsomes
T1 sequence (P05177 1-516): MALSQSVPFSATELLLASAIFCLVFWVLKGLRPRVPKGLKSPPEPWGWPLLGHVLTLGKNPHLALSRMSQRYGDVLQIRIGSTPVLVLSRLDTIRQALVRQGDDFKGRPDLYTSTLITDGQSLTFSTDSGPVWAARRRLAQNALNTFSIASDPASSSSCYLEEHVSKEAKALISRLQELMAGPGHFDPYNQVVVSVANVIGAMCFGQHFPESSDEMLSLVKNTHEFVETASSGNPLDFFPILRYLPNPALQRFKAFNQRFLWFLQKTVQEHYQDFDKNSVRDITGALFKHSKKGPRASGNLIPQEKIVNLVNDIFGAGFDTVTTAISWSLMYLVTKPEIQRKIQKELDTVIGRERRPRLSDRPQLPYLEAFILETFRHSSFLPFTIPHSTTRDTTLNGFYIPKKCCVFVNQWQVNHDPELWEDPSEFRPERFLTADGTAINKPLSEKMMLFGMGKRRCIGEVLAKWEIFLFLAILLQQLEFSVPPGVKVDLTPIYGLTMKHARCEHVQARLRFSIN
Protocol: (§1) In this experiment, the compound, liver microsomes and different CYP isoform enzyme substrates were incubated in a 37°C water bath, the amount of substrate metabolites generated was measured, and the inhibitory effect of the compound of the present disclosure on CYP enzyme was evaluated based on the IC50 value.
(§2) i. The compound was diluted with DMSO (Aladdin, catalog number: D103273-500ml) to concentrations of 0, 0.02, 0.06, 0.2, 0.6, 2 and 6 mM. The positive reference inhibitors for each CYP isoform and their concentrations are shown in Table 4 Table 4 Positive reference inhibitors for CYP isoform enzymes and their concentrations
(§3) ii. Phosphate buffer (sigma: V900050-500G) was used to formulate the substrate solution for each CYP isoform enzyme. Table 5 The substrate and the concentration thereof for CYP isoform enzyme
(§4) iii. Sample incubation. 1 µL of each concentration of the compound and positive reference inhibitor for CYP isoform enzyme were taken and placed into a 96-deep well plate (A-gen: P-1.0-RD-96-S), and 169 µL of 0.05 mg/mL liver microsomes (BioIVT, IHG) phosphate buffer solution (using 0.2 mg/mL liver microsomes for CYP2C19) was added. After uniform mixing, the plate was placed in a 37°C water bath (Shanghai Jinghong Experimental Equipment Co., Ltd., DK-500) with shaking for pre-incubation for 15 min. 10 µL of substrate (adding 1 µL of substrate for CYP3A4-Testosterone) and 20 µL of 10 mM NADPH phosphate buffer solution (MCE, HYF003/CS-4998) were added. After uniform mixing, the plate was incubated in a water bath with shaking for the following time: CYP1A2: 20 min, CYP2C9: 10 min, CYP2C19: 10 min, CYP2D6: 10 min, CYP3A4-Testosterone: 10 min, CYP3A4-Midazolam: 5 min. 400 µL of glacial acetonitrile/methanol (v/v, 1:1) containing an internal standard (500 nM tolbutamide, 5 nM terfenadine) was added to terminate the reaction. After centrifugation at 4000 rpm at 4°C for 40 min, the supernatant was taken and diluted with pure water according to the response of the metabolite of the substrate, and then UPLC-MS/MS (Sciex, Q-Trap 4500) was used for detection to obtain the peak area. The C18 chromatographic column was Kinetex 2.6u C18 100A (50 mm*3 mm).
(§5) The inhibitory effect of the compound on each P450 enzyme in human liver microsomes was calculated as the percentage of reduced metabolite formation compared with the non-inhibitory control (i.e. blank DMSO). The IC50 value of the compound for each P450 enzyme in human liver microsomes was calculated with the logarithm of the remaining activity and the inhibitor concentration using Graphpad Prism software. The calculation equation was as follows: Peak area ratio = compound peak area / internal standard peak area [formula] [formula]
(§6) In Graphpad Prism software, the IC50 value was calculated using the standard four-parameter curve fitting algorithm.

[2] = target: T2, CYP2C19 (Homo sapiens, UniProt P33261); experiment: as above; format: in vitro ADME; details: human liver microsomes, substrate Mephenytoin
T2 construct: (using 0.2 mg/mL liver microsomes for CYP2C19); tissue BioIVT IHG; host or cells: human liver microsomes
T2 sequence (P33261 whole entry): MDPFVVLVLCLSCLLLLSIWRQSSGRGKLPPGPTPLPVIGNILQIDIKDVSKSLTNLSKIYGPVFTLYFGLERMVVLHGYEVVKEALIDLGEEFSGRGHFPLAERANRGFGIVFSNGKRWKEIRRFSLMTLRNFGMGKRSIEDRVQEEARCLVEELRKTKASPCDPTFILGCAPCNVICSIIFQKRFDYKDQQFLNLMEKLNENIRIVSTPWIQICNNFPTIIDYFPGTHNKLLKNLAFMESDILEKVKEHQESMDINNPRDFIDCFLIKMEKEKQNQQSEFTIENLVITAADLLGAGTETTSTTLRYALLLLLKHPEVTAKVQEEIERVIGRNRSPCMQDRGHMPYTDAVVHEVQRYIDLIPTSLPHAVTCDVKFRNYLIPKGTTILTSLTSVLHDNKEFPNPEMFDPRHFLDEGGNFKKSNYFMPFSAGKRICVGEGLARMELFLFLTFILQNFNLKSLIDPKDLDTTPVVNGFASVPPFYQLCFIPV
Protocol: as §1, §2, §3, §4, §5, §6

[3] = target: T3, CYP2C9 (Homo sapiens, UniProt P11712); experiment: as above; format: in vitro ADME; details: human liver microsomes, substrate Diclofenac Sodium
T3 construct: 0.05 mg/mL liver microsomes (BioIVT, IHG) phosphate buffer solution; tissue BioIVT IHG; host or cells: human liver microsomes
T3 sequence (P11712 whole entry): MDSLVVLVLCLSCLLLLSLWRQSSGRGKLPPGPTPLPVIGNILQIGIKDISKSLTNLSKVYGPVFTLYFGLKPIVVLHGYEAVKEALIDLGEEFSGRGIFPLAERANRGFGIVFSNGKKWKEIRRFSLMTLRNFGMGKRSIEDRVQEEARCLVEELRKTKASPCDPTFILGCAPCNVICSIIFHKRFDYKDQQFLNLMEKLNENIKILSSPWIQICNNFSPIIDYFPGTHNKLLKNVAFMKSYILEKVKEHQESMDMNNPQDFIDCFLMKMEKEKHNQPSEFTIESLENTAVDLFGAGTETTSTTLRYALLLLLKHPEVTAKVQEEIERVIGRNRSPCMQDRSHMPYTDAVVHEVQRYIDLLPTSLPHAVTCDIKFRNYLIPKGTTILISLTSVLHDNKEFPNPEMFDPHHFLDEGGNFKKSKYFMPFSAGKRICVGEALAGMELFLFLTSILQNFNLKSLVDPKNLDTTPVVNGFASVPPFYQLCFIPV
Protocol: as §1, §2, §3, §4, §5, §6

[4] = target: T4, CYP2D6 (Homo sapiens, UniProt P10635); experiment: as above; format: in vitro ADME; details: human liver microsomes, substrate Dextromethorphan
T4 construct: 0.05 mg/mL liver microsomes (BioIVT, IHG) phosphate buffer solution; tissue BioIVT IHG; host or cells: human liver microsomes
T4 sequence (P10635 whole entry): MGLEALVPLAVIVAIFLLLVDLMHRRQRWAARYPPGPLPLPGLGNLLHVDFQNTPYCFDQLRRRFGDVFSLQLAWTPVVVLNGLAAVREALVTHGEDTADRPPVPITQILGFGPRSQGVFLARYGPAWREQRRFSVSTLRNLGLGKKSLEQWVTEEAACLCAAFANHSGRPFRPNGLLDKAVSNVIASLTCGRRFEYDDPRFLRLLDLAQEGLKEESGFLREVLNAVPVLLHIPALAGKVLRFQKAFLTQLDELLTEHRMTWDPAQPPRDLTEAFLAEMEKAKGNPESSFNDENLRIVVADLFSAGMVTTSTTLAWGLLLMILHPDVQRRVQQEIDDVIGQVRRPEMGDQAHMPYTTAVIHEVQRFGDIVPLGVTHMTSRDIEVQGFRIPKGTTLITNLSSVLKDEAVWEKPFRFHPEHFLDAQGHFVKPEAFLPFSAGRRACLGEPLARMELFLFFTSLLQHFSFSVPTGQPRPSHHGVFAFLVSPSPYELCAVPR
Protocol: as §1, §2, §3, §4, §5, §6

[5] = target: T5, CYP3A4 (Homo sapiens, UniProt P08684); experiment: as above; format: in vitro ADME; details: liver microsomes
T5 construct: 0.05 mg/mL liver microsomes (BioIVT, IHG) phosphate buffer solution; tissue BioIVT IHG; host or cells: human liver microsomes
T5 sequence (P08684 whole entry): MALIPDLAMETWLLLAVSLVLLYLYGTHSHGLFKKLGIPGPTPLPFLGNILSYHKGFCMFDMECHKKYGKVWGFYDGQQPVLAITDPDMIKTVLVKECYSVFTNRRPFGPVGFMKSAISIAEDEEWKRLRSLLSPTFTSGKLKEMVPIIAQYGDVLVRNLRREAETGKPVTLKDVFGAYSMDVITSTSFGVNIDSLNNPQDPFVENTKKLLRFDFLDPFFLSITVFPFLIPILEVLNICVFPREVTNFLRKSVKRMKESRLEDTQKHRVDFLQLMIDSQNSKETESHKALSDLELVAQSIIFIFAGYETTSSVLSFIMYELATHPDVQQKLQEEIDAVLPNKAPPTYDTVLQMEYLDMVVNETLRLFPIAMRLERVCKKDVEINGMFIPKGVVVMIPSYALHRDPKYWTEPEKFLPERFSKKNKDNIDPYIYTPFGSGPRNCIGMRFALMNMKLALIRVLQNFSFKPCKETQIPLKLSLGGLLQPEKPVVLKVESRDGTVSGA
Protocol: as §1, §2, §3, §4, §5, §6

[6] = target: T6, hERG ion channel (Homo sapiens, UniProt Q12809); experiment: Inhibitory effect on hERG ion channels (manual patch clamp); format: cell-based; details: HEK293 cells stably expressing hERG channels, read-out: hERG (IC50, manupatch)
T6 construct: host or cells: HEK293
T6 sequence (Q12809 whole entry): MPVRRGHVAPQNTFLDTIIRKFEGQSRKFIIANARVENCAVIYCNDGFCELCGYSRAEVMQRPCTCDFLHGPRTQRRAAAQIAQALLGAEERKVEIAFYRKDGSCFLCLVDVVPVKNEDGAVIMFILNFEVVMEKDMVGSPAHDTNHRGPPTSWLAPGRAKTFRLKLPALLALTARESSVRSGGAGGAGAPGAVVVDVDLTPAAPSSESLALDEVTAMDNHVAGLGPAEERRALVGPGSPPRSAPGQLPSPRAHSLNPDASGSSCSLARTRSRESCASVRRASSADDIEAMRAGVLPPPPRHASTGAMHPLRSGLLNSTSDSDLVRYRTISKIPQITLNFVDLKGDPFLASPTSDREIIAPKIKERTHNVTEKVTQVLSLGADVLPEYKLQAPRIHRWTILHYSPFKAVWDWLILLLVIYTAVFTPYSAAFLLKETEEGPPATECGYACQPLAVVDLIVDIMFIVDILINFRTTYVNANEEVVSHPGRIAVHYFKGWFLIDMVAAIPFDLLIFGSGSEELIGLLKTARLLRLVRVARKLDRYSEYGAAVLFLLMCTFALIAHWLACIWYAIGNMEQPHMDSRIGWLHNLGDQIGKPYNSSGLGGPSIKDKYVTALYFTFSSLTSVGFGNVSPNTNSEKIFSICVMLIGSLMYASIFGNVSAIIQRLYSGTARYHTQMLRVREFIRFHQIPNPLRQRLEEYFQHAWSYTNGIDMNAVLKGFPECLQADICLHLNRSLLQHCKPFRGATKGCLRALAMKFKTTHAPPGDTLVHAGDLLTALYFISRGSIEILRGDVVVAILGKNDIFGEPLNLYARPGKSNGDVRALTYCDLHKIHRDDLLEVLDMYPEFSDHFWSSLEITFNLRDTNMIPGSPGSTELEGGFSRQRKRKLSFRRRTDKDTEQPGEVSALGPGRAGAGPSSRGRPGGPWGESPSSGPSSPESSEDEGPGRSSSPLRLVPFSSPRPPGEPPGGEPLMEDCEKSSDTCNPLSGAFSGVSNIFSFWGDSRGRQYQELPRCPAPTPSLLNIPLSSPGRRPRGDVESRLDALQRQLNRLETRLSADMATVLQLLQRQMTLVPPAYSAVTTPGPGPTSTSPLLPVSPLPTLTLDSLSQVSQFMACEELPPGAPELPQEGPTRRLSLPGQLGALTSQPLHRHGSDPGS
Protocol: In this experiment, the inhibitory effect of the compound on the hERG ion channel was detected by a manual patch clamp electrophysiological method, and the cardiac safety was evaluated based on the single concentration inhibition rate or IC50 of the compound.
The cells used in this experiment were HEK293 cell lines transfected with hERG cDNA and stably expressing hERG channels (#60187, provided by BPS, P3-P23 generations were used for experimental research). The cells was cultured in a medium containing the following components: MEM medium, 10% (v/v) inactivated fetal bovine serum, 1 mM sodium pyruvate, 500 µg geneticin, 0.1 mM non-essential amino acids, 100 U penicillin-streptomycin. HEK293 hERG cells were grown in a culture flask containing the above culture solution and cultured in an incubator at 37°C and 5% CO2. […]
A manual patch clamp system (HEKA EPC-10 signal amplifier and digital conversion system, purchased from HEKA Electronics, Germany) was used to record whole-cell currents in electrophysiological experiments. […] After the hERG current recorded in the above steps reached stabilization under the continuous perfusion of extracellular solution in the recording chamber, different concentrations of the compound to be tested could be perfused until the inhibitory effect of the drug on the hERG current reached a stable state. […]

Structure (SMILES): Cn1c(=O)n(C2CCC(=O)NC2=O)c2cccc(C#CCOC3CCN(C[C@H]4CC[C@H](n5cc(NC(=O)c6cnn7ccc(N8C[C@H]9C[C@@H]8CO9)nc67)c(C(F)F)n5)CC4)CC3)c21 (stereo partly shown) [KT474, reference compound]
- IC50 [1]: > 30 µM
- IC50 [2]: 3.81 µM
- IC50 [3]: 9.61 µM
- IC50 [4]: > 30 µM
- IC50 ([5]; substrate Midazolam, read-out: IC50 (µM) CYP3A4-M): 15.1 µM
- IC50 ([5]; substrate Testosterone, read-out: IC50 (µM) CYP3A4-T): > 30 µM
- IC50 [6]: 2.65 µM

Source: patent EP4759807A1, “PROTEOLYSIS TARGETING CHIMERA COMPOUND FOR DEGRADING IRAK4 AND USE THEREOF” (Shenzhen Zhongge Biological Technology Co., Ltd., priority 2023, dated 2025)
